The values that follow come from patent US20250177340A1, “Tartaric Acid Analogs and Uses Thereof” (Lapix Therapeutics, Inc., priority 2021, published 2025).

Usually bioavailability stands for dose-corrected exposure relative to a reference, in per cent. A low value points to poor availability.

Data set [1] has as its system KLRG-1, CTLA-4, TIM-3, PD-1, IFNγ/Granzyme B, FoxP3. In words: Ex vivo flow cytometry of splenocytes after seven doses, murine melanoma model (Example 13). In kind it is in vivo, mice. The settings on record: 7 doses, Compound B 4 mg/mouse PO QD, Compound C 2.5 mg/mouse IV QD; for inhibition of CTLA-4 as compared to control / inhibition of KLGR-1 as compared to control / inhibition of PD-1 as compared to control / inhibition of TIM-3 as compared to control: CD8+ splenocytes, one mouse per group. Here is the method:
(§1) This study was designed to evaluate the effects of Compound B and Compound C on tumor growth and the overall survival of animals implanted SC with 10^5 melanoma cells. Furthermore, ex vivo analysis of splenocytes at the end of dosing was used to evaluate change in the T-cell population and function. FIG. 8A is a diagram of the study design.
(§2) Animals were housed four per cage and had access to food and water ad libitum. Compound B was dissolved in sterile PBS, and pH was adjusted to approximately 7.5. Compound C was first dissolved in DMSO before diluting in sterile PBS. Sterile PBS was used as a control. Compound B was dosed at 4 mg/mouse PO QD. This dose was expected to result in an exposure equivalent to a 1 mg/mouse IV dose. Compound C was dosed at 2.5 mg/mouse IV.
(§3) B16F10 melanoma cells were grown in RPMI 1640 media supplemented with 10% FBS and antibiotics (penicillin/streptomycin) using T75 flasks. When cells reached 70-80% confluency, they were treated with 3 ml of 0.25% trypsin/EDTA. Detached cells were harvested. A single-cell suspension was prepared in PBS. A dorsal SC injection of 10^5 cells in mice marked day 0 of the experiment. Animals were monitored daily, and tumors were measured twice a week.
For tumor growth inhibition, animals were divided into 3 groups. The control group received an IV injection of PBS to match the start time, dosing volume, and dosing frequency of the Compound C treatment group. The treatment group received 100 μl of 4 mg/mouse PO QD of Compound B for 7 days starting at day 7 after tumor implantation, or 2.5 mg/mouse IV QD of Compound C. The endpoint was reached when the tumor reached 1 cm^3. Tumor volume was calculated using the following formula: […]
On day 14, one mouse from each group was sacrificed for ex vivo analysis. One animal with an average tumor size was selected from the control group and the Compound B treatment group. Since no animals in the Compound C treatment group had any visible tumors by day 14, one mouse was selected at random from the Compound C treatment group.
Spleens were collected and a single-cell suspension was prepared for cellular phenotyping by flow cytometry. Cells were stained and gated for CD8. IFNγ, Granzyme B (GzmB), KLRG-1, CTLA-4, TIM-3, and PD-1 expression was evaluated. Cells gated for CD4 were evaluated for FoxP3 expression.

The subject of data set [2] is Granzyme B and IFN-γ. In words: GzmB+/IFN-γ+ double-positive murine CD8+ T-cells, Example 7. In kind it is cell-based, C57BL/6 mice. An excerpt: (§4) In this study, the effects of increasing doses of compound B and compound C on proliferation (CFSE staining), activation (Granzyme B and IFN-γ), and checkpoint modulation (PD1 and TIM3) of murine CD8+ T-cells in the presence and absence of phosphatidylserine (PS) were explored.
(§5) Preparation of test materials: 30:70 PS:DMPC liposomes were synthesized in PBS. […] Compound C was first dissolved in a small volume of DMSO before diluting to the final desired concentration.
(§6) Tissue culture and dosing: Splenocytes of C57BL/6 mice were stained with CFSE and prepared, cultured, and dosed. Cells were seeded at 4×10^5 cells/well.
(§7) Controls: Two controls were used. A negative control dosed with 10 ng/ml IL-2 was used, and a positive control dosed with 20 μg/ml ConA and 10 ng/ml IL-2 was used.
(§8) Treatment: After ConA stimulation (10 μg/ml), cells were dosed with log 3 dilution of compound B or compound C to cover a range from 1×10^−3 to 30 mM in duplicates with or without 0.1 mM PS:DMPC liposomes. All wells were dosed with 10 ng/ml of IL-2.
(§9) Flow cytometer: Flow cytometer analysis was performed to assess cell proliferation by CFSE, activation by double staining for Granzyme B (GzmB) and IFN-γ, checkpoint modulation by double staining for PD-1 and TIM3.
(§10) Exposure-response analysis: Change from baseline was calculated for each marker as follows:
(§11) Concentration versus change was fitted to an appropriate three-, four- or five-parameter log-logistic model using “dre” package in “R.”
The fold change from baseline GzmB+/IFN-γ+ double-positive CD8+ T-cells as a function of increasing doses of compound B was calculated using equation 1, where Responsecontrol was GzmB+/IFN-γ+ double-positive CD8+ T-cells in cells treated with IL-2 alone and Responsetreatment was GzmB+/IFN-γ+ double-positive CD8+ T-cells at each dose of compound B. The baseline PS response was calculated using the same equation with Responsetreatment as the GzmB+/IFN-γ+ double-positive CD8+ T-cells treated with 0.1 mM PS.

Data set [3] is described as follows: Oral bioavailability. In kind it is in vivo.
The subject of data set [4] is TIM3 and PD-1. Nature of the data set: TIM3+/PD-1+ double-positive murine CD8+ T-cells, Example 7. To be noted: for effect on PS-stimulated TIM3+/PD-1+ double-positive CD8+ T-cells: 0.1 mM PS; for average reduction in TIM3+/PD-1+ double-positive CD8+ T-cells vs 0.1 mM PS treated cells / average reduction in TIM3+/PD-1+ double-positive CD8+ T-cells vs negative control: absence of PS, dose-independent. It is filed as cell-based, C57BL/6 mice.
Text: as §4, §5, §6, §7, §8, §9, §10, §11
The fold change from baseline of TIM3+/PD-1+ double-positive CD8+ T-cells as a function of increasing doses of compound B was calculated using equation 1, where Responsecontrol was TIM3+/PD-1+ double-positive CD8+ T-cells in cells treated with IL-2 alone and Responsetreatment was TIM3+/PD-1+ double-positive CD8+ T-cells at each dose of compound B. The baseline PS response was calculated using the same equation with Responsetreatment as the TIM3+/PD-1+ double-positive CD8+ T-cells treated with 0.1 mM PS.

Data set [5] has as its system B16F10 melanoma cells. Nature of the data set: Tumor growth inhibition and overall survival, SC B16F10 melanoma (Example 13). To be noted: Compound B 4 mg/mouse PO QD x7, Compound C 2.5 mg/mouse IV QD; for animals showing any tumor growth: by day 14; for animals with measurable tumors: by day 16; for tumor volume versus placebo group: duration of the study. It is filed as in vivo, mice. Here is the method: as §1, §2, §3
For tumor growth inhibition, animals were divided into 3 groups. The control group received an IV injection of PBS to match the start time, dosing volume, and dosing frequency of the Compound C treatment group. The treatment group received 100 μl of 4 mg/mouse PO QD of Compound B for 7 days starting at day 7 after tumor implantation, or 2.5 mg/mouse IV QD of Compound C. The endpoint was reached when the tumor reached 1 cm^3. Tumor volume was calculated using the following formula:
Tumor volume=length×width×½ width
The mice were also monitored for survival, and were euthanized when the tumor size reached the predefined endpoint of 1 cm^3.

[6] abbreviates: increasing doses, absence of PS.

As for `O=C(O)[C@H](O)[C@@H](O)C(=O)OCCCc1ccccc1` [Compound B, (2R,3R)-2,3-dihydroxy-4-oxo-4-(3-phenylpropoxy)butanoic acid], in data set [1], the “decrease in FoxP3 positive CD4+ T-cells compared to placebo” value came to 1.5%, the “increase in GrzmB/INFγ double-positive CD8+ T-cells compared to placebo” value came to 25%, the “inhibition of CTLA-4 as compared to control” value came to 42% and the “inhibition of KLGR-1 as compared to control” value stood at 55%. Moreover, in data set [1], the “inhibition of PD-1 as compared to control” value was 13% and the “inhibition of TIM-3 as compared to control” value is 63%. Besides, in data set [2] (highest dose, 0.1 mM PS), the “fold increase in GzmB+/IFN-γ+ double-positive CD8+ T-cells vs PS treated cell” value is reported as 4.6 fold and the “fold increase in GzmB+/IFN-γ+ double-positive CD8+ T-cells vs negative control” value (“fold increase … vs negative control” for short) stood at 2 fold. In data set [2] (setting [6]), the “fold increase … vs negative control” value was “more than 16 fold”. In addition, in data set [3] (mouse, in vivo, po, data not shown), the bioavailability is roughly 30%. In addition, in data set [4], the “effect on PS-stimulated TIM3+/PD-1+ double-positive CD8+ T-cells” value is listed as “reverse the stimulatory effects of PS”, the “average reduction in TIM3+/PD-1+ double-positive CD8+ T-cells vs 0.1 mM PS treated cells” value was “about ⅔” and the “average reduction in TIM3+/PD-1+ double-positive CD8+ T-cells vs negative control” value is “about ⅗”. Moreover, in data set [5], the “animals did not survive the study” value is listed as 3/7, the “animals survived tumor-free for the duration of the study” value was 3/7, the “animals survived with a tumor (to day 28)” value is reported as 1/7 and the survival was determined as 40%. Also, in data set [5], the “animals showing any tumor growth” value was 3/7, the “animals with measurable tumors” value was determined as 3 and the “tumor volume versus placebo group” value was “statistically lower”.

Consider `O=C(O)[C@H](O)[C@@H](O)C(=O)OCCC(c1ccccc1)c1ccccc1` [Compound C, (2R,3R)-4-(3,3-diphenylpropoxy)-2,3-dihydroxy-4-oxobutanoic acid], for which, in data set [1], the “decrease in FoxP3 positive CD4+ T-cells compared to placebo” value amounted to 59%, the “increase in GrzmB/INFγ double-positive CD8+ T-cells compared to placebo” value was 62%, the “inhibition of CTLA-4 as compared to control” value is 77% and the “inhibition of KLGR-1 as compared to control” value is 70%. In addition, in data set [1], the “inhibition of PD-1 as compared to control” value came out at 70% and the “inhibition of TIM-3 as compared to control” value amounted to 71%. Further, in data set [2] (highest dose, 0.1 mM PS), the “fold increase in GzmB+/IFN-γ+ double-positive CD8+ T-cells vs PS treated cell” value is on record as 18 fold and the “fold increase … vs negative control” value is recorded as 10 fold. Further, the “fold increase … vs negative control” value in data set [2] (setting [6]) was “about 30 fold”. The oral bioavailability result in data set [3] (prior study) was “not orally bioavailable”. Further, in data set [4], the “effect on PS-stimulated TIM3+/PD-1+ double-positive CD8+ T-cells” value is recorded as “can reverse the stimulatory effect of PS”, the “average reduction in TIM3+/PD-1+ double-positive CD8+ T-cells vs 0.1 mM PS treated cells” value is listed as “about ⅘” and the “average reduction in TIM3+/PD-1+ double-positive CD8+ T-cells vs negative control” value is on record as “about ⅔”. For the same molecule, in data set [5], the “animals did not survive the study” value is listed as 2/8, the “animals survived tumor-free for the duration of the study” value was 5/8, the “animals survived with a tumor (to day 28)” value is given as 1/8 and the survival was 80%. In data set [5], the “animals showing any tumor growth” value is 0/8, the “animals with measurable tumors” value is recorded as 0 and the “tumor volume versus placebo group” value was “statistically lower”.
